Test results from patent publication US12077503B2, “Substituted cyclic amides and their use as herbicides” (FMC CORPORATION, priority 2015, dated 2024).

What was measured:
Format in all cases: in vivo
[1] = test system: redroot pigweed (Amaranthus retroflexus); test: Test G Post-Emergence Protocol; conditions: Amaranthus retroflexus, post-emergence, 312 h
Method in brief: (§1)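 Sow in soil; grow 8 d (24/16 °C, 14 h light, 65% humidity); spray 15.625/62.5/250 g/ha in acetone:water 50:50 + 0.5% Tween 20; grow on, water twice daily; score damage 0–100 at 13 d.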

[2] = test system: giant foxtail (Setaria faberi); test: Test G Post-Emergence Protocol; conditions: Setaria faberi, post-emergence, 312 h
Method in brief: as §1

[3] = test system: ivy-leaved morning glory (Ipomoea hederacea); test: Test G Post-Emergence Protocol; conditions: Ipomoea, post-emergence, 312 h
Method in brief: as §1

[4] = test system: barnyardgrass (Echinochloa crus-galli); test: Test G Post-Emergence Protocol; conditions: Echinochloa crus-galli, post-emergence, 312 h
Method in brief: as §1

[5] = test system: velvetleaf (Abutilon theophrasti); test: Test G Post-Emergence Protocol; conditions: Abutilon theophrasti, post-emergence, 312 h
Method in brief: as §1

corn (Zea mays) [6] = test: Test G Post-Emergence Protocol; conditions: Zea mays, post-emergence, 312 h
Method in brief: as §1

[7] = test system: redroot pigweed (Amaranthus retroflexus); test: Test G Pre-Emergence Protocol; conditions: Amaranthus retroflexus, pre-emergence, 312 h, evaluated after 13 days
Method in brief: (§2)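 Scores are visual damage ratings from 0 (no damage) to 100 (total plant kill), taken 13 days after treatment. Compound was sprayed one day post-sowing at 15.625, 62.5 or 250 g/ha in 50:50 acetone/water with 0.5% Tween 20.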

[8] = test system: giant foxtail (Setaria faberi); test: Test G Pre-Emergence Protocol; conditions: Setaria faberi, pre-emergence, 312 h, evaluated after 13 days
Method in brief: as §2

[9] = test system: ivy-leaved morning glory (Ipomoea hederacea); test: Test G Pre-Emergence Protocol; conditions: Ipomoea, pre-emergence, 312 h, evaluated after 13 days
Method in brief: as §2

[10] = test system: barnyardgrass (Echinochloa crus-galli); test: Test G Pre-Emergence Protocol; conditions: Echinochloa crus-galli, pre-emergence, 312 h, evaluated after 13 days
Method in brief: as §2

[11] = test system: velvetleaf (Abutilon theophrasti); test: Test G Pre-Emergence Protocol; conditions: Abutilon theophrasti, pre-emergence, 312 h, evaluated after 13 days
Method in brief: as §2

corn (Zea mays) [12] = test: Test G Pre-Emergence Protocol; conditions: Zea mays, pre-emergence, 312 h, evaluated after 13 days
Method in brief: as §2

With `CN1C[C@H](c2ccc(C(F)(F)F)cc2)[C@@H](C(=O)Nc2ccc(C(F)(F)F)cc2F)C1=O` (racemic) [Compound 1426] the pest or weed control at 15.625 g/ha ([1]; 15.625 g ai/ha, evaluated after 13 days (100=total damage to plant; 0=no damage to plant), read-out: Pigweed, Redroot damage rating) was 0%, the pest or weed control at 62.5 g/ha ([1]; 62.5 g ai/ha, evaluated after 13 days, read-out: Pigweed, Redroot damage rating (100=total damage to plant; 0=no damage to plant)) was 10% and the pest or weed control at 250 g/ha ([1]; 250 g ai/ha, evaluated after 13 days, read-out: damage to plant, Pigweed, Redroot (100=total damage to plant; 0=no damage to plant)) was 10%. For the same compound, the pest or weed control at 15.625 g/ha ([2]; 15.625 g ai/ha, evaluated after 13 days (100=total damage to plant; 0=no damage to plant), read-out: Foxtail, Giant damage rating) was 0%, the pest or weed control at 62.5 g/ha ([2]; 62.5 g ai/ha, evaluated after 13 days, read-out: Foxtail, Giant damage rating (100=total damage to plant; 0=no damage to plant)) was 0% and the pest or weed control at 250 g/ha ([2]; 250 g ai/ha, evaluated after 13 days, read-out: damage to plant, Foxtail, Giant (100=total damage to plant; 0=no damage to plant)) was 40%. It also gave a pest or weed control at 15.625 g/ha ([3]; 15.625 g ai/ha, evaluated after 13 days (100=total damage to plant; 0=no damage to plant), read-out: Morningglory, Ivy-leaved damage rating) of 0%, a pest or weed control at 62.5 g/ha ([3]; 62.5 g ai/ha, evaluated after 13 days, read-out: Morningglory, Ivy-leaved damage rating (100=total damage to plant; 0=no damage to plant)) of 0% and a pest or weed control at 250 g/ha ([3]; 250 g ai/ha, evaluated after 13 days, read-out: damage to plant, Morningglory, Ivy-leaved (100=total damage to plant; 0=no damage to plant)) of 0%. For the same compound, the pest or weed control at 15.625 g/ha ([4]; 15.625 g ai/ha, evaluated after 13 days (100=total damage to plant; 0=no damage to plant), read-out: Barnyardgrass damage rating) was 0%, the pest or weed control at 62.5 g/ha ([4]; 62.5 g ai/ha, evaluated after 13 days, read-out: Barnyardgrass damage rating (100=total damage to plant; 0=no damage to plant)) was 0% and the pest or weed control at 250 g/ha ([4]; 250 g ai/ha, evaluated after 13 days, read-out: damage to plant, Barnyardgrass (100=total damage to plant; 0=no damage to plant)) was 20%. For the same compound, the pest or weed control at 15.625 g/ha ([5]; 15.625 g ai/ha, evaluated after 13 days (100=total damage to plant; 0=no damage to plant), read-out: Velvetleaf damage rating) was 0%, the pest or weed control at 62.5 g/ha ([5]; 62.5 g ai/ha, evaluated after 13 days, read-out: Velvetleaf damage rating (100=total damage to plant; 0=no damage to plant)) was 0% and the pest or weed control at 250 g/ha ([5]; 250 g ai/ha, evaluated after 13 days, read-out: damage to plant, Velvetleaf (100=total damage to plant; 0=no damage to plant)) was 0%. It also gave a plant injury at 15.625 g/ha (corn (Zea mays) [6]; 15.625 g ai/ha, evaluated after 13 days (100=total damage to plant; 0=no damage to plant), read-out: Corn damage rating) of 10%, a plant injury at 62.5 g/ha (corn (Zea mays) [6]; 62.5 g ai/ha, evaluated after 13 days, read-out: Corn damage rating (100=total damage to plant; 0=no damage to plant)) of 0% and a plant injury at 250 g/ha (corn (Zea mays) [6]; 250 g ai/ha, evaluated after 13 days, read-out: damage to plant, Corn (100=total damage to plant; 0=no damage to plant)) of 10%. It also gave a pest or weed control at 15.625 g/ha ([7]; 15.625 g ai/ha, read-out: Pigweed, Redroot damage rating (100=total damage to plant; 0=no damage to plant)) of 0%, a pest or weed control at 62.5 g/ha ([7]; 62.5 g ai/ha, 100=total damage to plant, 0=no damage to plant, read-out: plant damage rating, Pigweed, Redroot) of 0% and a pest or weed control at 250 g/ha ([7]; 250 g ai/ha, read-out: Pigweed, Redroot damage rating (100=total damage to plant; 0=no damage to plant)) of 0%. The pest or weed control at 15.625 g/ha ([8]; 15.625 g ai/ha, read-out: Foxtail, Giant damage rating (100=total damage to plant; 0=no damage to plant)) was 0%, the pest or weed control at 62.5 g/ha ([8]; 62.5 g ai/ha, 100=total damage to plant, 0=no damage to plant, read-out: plant damage rating, Foxtail, Giant) was 50% and the pest or weed control at 250 g/ha ([8]; 250 g ai/ha, read-out: Foxtail, Giant damage rating (100=total damage to plant; 0=no damage to plant)) was 70%. The pest or weed control at 15.625 g/ha ([9]; 15.625 g ai/ha, read-out: Morning-glory, Ivy-leaved damage rating (100=total damage to plant; 0=no damage to plant)) was 0%, the pest or weed control at 62.5 g/ha ([9]; 62.5 g ai/ha, 100=total damage to plant, 0=no damage to plant, read-out: plant damage rating, Morningglory, Ivy-leaved) was 0% and the pest or weed control at 250 g/ha ([9]; 250 g ai/ha, read-out: Morningglory, Ivy-leaved damage rating (100=total damage to plant; 0=no damage to plant)) was 0%. It also gave a pest or weed control at 15.625 g/ha ([10]; 15.625 g ai/ha, read-out: Barnyard grass damage rating (100=total damage to plant; 0=no damage to plant)) of 0%, a pest or weed control at 62.5 g/ha ([10]; 62.5 g ai/ha, 100=total damage to plant, 0=no damage to plant, read-out: plant damage rating, Barnyardgrass) of 10% and a pest or weed control at 250 g/ha ([10]; 250 g ai/ha, read-out: Barnyardgrass damage rating (100=total damage to plant; 0=no damage to plant)) of 20%. For the same compound, the pest or weed control at 15.625 g/ha ([11]; 15.625 g ai/ha, read-out: Velvetleaf damage rating (100=total damage to plant; 0=no damage to plant)) was 0%, the pest or weed control at 62.5 g/ha ([11]; 62.5 g ai/ha, 100=total damage to plant, 0=no damage to plant, read-out: plant damage rating, Velvetleaf) was 0% and the pest or weed control at 250 g/ha ([11]; 250 g ai/ha, read-out: Velvetleaf damage rating (100=total damage to plant; 0=no damage to plant)) was 0%. It also gave a plant injury at 15.625 g/ha (corn (Zea mays) [12]; 15.625 g ai/ha, read-out: Corn damage rating (100=total damage to plant; 0=no damage to plant)) of 0%, a plant injury at 62.5 g/ha (corn (Zea mays) [12]; 62.5 g ai/ha, 100=total damage to plant, 0=no damage to plant, read-out: plant damage rating, Corn) of 0% and a plant injury at 250 g/ha (corn (Zea mays) [12]; 250 g ai/ha, read-out: Corn damage rating (100=total damage to plant; 0=no damage to plant)) of 0%.
